Legend:
Test in all cases: Test C postemergence
[1] = system: barnyardgrass; type: in vivo, Echinochloa crus-galli
Excerpt: (§1) Seeds of plant species selected from blackgrass (Alopecurus myosuroides), ryegrass, Italian (Italian ryegrass, Lolium multiflorum), wheat (winter wheat, Triticum aestivum), galium (catchweed bedstraw, Galium aparine), corn (Zea mays), crabgrass, large (large crabgrass, Digitaria sanguinalis), foxtail, giant (giant foxtail, Setaria faberii), johnsongrass (Sorghum halepense), lambsquarters (Chenopodium album), morningglory (Ipomoea coccinea), nutsedge, yellow (yellow nutsedge, Cyperus esculentus), pigweed (redroot pigweed, Amaranthus retroflexus), ragweed (common ragweed, Ambrosia elation), soybean (Glycine max), barnyardgrass (Echinochloa crus-galli), oilseed rape (Brassica napus), waterhemp (common waterhemp, Amaranthus rudis), oat, wild (wild oat, Avena fatua), kochia (Kochia scoparia), Surinam grass (Brachiaria decumbens), foxtail, green (green foxtail, Setaria viridis), goosegrass (Eleusine indica), bromegrass, downy (downy bromegrass, Bromus tectorum), nightshade (eastern black nightshade, Solanum ptycanthum), cocklebur (common cocklebur, Xanthium strumarium), cupgrass, woolly (woolly cupgrass, Eriochloa villosa), bermudagrass (Cynodon dactylon), sunflower, (common oilseed sunflower, Helianthus annuus), Russian thistle (Salsola kali), and velvetleaf (Abutilon theophrasti) were planted into a blend of loam soil and sand and treated preemergence with test chemicals formulated in a non-phytotoxic solvent mixture which included a surfactant.
(§2) At the same time, plants selected from these crop and weed species and also chickweed (common chickweed, Stellaria media), canarygrass (littleseed canarygrass, Phalaris minor), and deadnettle (henbit deadnettle, Lamium amplexicaule), were planted in pots containing Redi-Earth® planting medium (Scotts Company, 14111 Scottslawn Road, Marysville, Ohio 43041) comprising spaghnum peat moss, vermiculite, wetting agent and starter nutrients and treated with postemergence applications of test chemicals formulated in the same manner. Plants ranged in height from 2 to 18 cm (1- to 4-leaf stage) for postemergence treatments. Treated plants and controls were maintained in a greenhouse for 13 to 15 days, after which time all species were compared to controls and visually evaluated. Plant response ratings, summarized in Table C, are based on a scale of 0 to 100 where 0 is no effect and 100 is complete control. A dash (-) response means no test result.

[2] = system: ryegrass, Italian; type: in vivo, Lolium multiflorum; settings: postemergence
Outline: (§3)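 Seeds were sown in a loam soil–sand blend and sprayed preemergence with compounds formulated in a non-phytotoxic solvent mixture containing surfactant. Postemergence plants, grown in peat/vermiculite medium to 2–18 cm (1- to 4-leaf stage), received the same formulation. After 13 to 15 days in a greenhouse, injury was rated visually against controls (0 = no effect, 100 = complete control).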

[3] = system: kochia; type: in vivo, Kochia scoparia
Outline: as §3

[4] = system: waterhemp; type: in vivo, Amaranthus rudis; settings: postemergence, 250 g ai/ha; scale 0 to 100 (0 no effect, 100 complete control)
Outline: as §3

[5] = system: oat, wild; type: in vivo, Avena fatua
Excerpt: as §1, §2

[6] = system: velvetleaf; type: in vivo, Abutilon theophrasti; settings: postemergence, 250 g ai/ha; scale 0 to 100 (0 no effect, 100 complete control)
Excerpt: as §1, §2

[7] = system: blackgrass; type: in vivo, Alopecurus myosuroides
Excerpt: as §1, §2

[8] = system: lambsquarters; type: in vivo, Chenopodium album
Outline: as §3

[9] = system: oilseed rape; type: in vivo, Brassica napus; settings: postemergence
Outline: as §3

[10] = system: foxtail, giant; type: in vivo, Setaria faberii
Excerpt: as §1, §2

[11] = system: galium; type: in vivo, Galium aparine
Excerpt: as §1, §2

[12] = system: morningglory; type: in vivo, Ipomoea coccinea
Excerpt: as §1, §2

[13] = system: nutsedge, yellow; type: in vivo, Cyperus esculentus
Outline: as §3

[14] = system: crabgrass, large; type: in vivo, Digitaria sanguinalis
Outline: as §3

[15] = Postemergence, 31 g ai/ha, visually evaluated after 13 to 15 days
[16] = postemergence, 62 g ai/ha, scale 0 to 100
[17] = postemergence, 250 g ai/ha, scale 0 to 100 (0 no effect, 100 complete control)
[18] = postemergence, 125 g ai/ha, scale 0 to 100, 0 no effect, 100 complete control
[19] = 250 g ai/ha, scale 0 to 100 (0 no effect, 100 complete control)
[20] = 125 g ai/ha, scale 0 to 100, 0 no effect, 100 complete control

SMILES: CCNC(=O)c1cc(CC)n(Cc2ccnc(C(F)(F)F)c2)n1 [Compound 196]
- Plant response rating (scale of 0 to 100 where 0 is no effect and 100 is complete control), Barnyardgrass [1, 15]: 5
- Barnyardgrass plant response rating [1, 16]: 5
- Plant response rating, Barnyardgrass [1, 17]: 35
- Plant response rating, Barnyardgrass [1, 18]: 20
- Plant response rating, Ryegrass, Italian [2, 19]: 5
- Plant response rating, Ryegrass, Italian [2, 20]: 5
- Plant response rating (scale of 0 to 100 where 0 is no effect and 100 is complete control), Kochia [3, 15]: 80
- Kochia plant response rating [3, 16]: 85
- Plant response rating, Kochia [3, 17]: 90
- Plant response rating, Kochia [3, 18]: 90
- Plant response rating, Waterhemp [4]: 70
- Plant response rating (scale of 0 to 100 where 0 is no effect and 100 is complete control), Oat, Wild [5, 15]: 5
- Oat, Wild plant response rating [5, 16]: 5
- Plant response rating, Oat, Wild [5, 17]: 15
- Plant response rating, Oat, Wild [5, 18]: 10
- Plant response rating, Velvetleaf [6]: 50
- Plant response rating (scale of 0 to 100 where 0 is no effect and 100 is complete control), Blackgrass [7, 15]: 20
- Blackgrass plant response rating [7, 16]: 15
- Plant response rating, Blackgrass [7, 17]: 15
- Plant response rating, Blackgrass [7, 18]: 5
- Plant response rating (scale of 0 to 100 where 0 is no effect and 100 is complete control), Lambsquarters [8, 15]: 60
- Lambsquarters plant response rating [8, 16]: 65
- Plant response rating, Lambsquarters [8, 17]: 75
- Plant response rating, Lambsquarters [8, 18]: 75
- Oilseed Rape plant response rating ([9]; 62 g ai/ha, scale 0 to 100): 5
- Plant response rating, Oilseed Rape [9, 19]: 70
- Plant response rating, Oilseed Rape [9, 20]: 10
- Plant response rating (scale of 0 to 100 where 0 is no effect and 100 is complete control), Foxtail, Giant [10, 15]: 5
- Foxtail, Giant plant response rating [10, 16]: 25
- Plant response rating, Foxtail, Giant [10, 17]: 20
- Plant response rating, Foxtail, Giant [10, 18]: 20
- Plant response rating (scale of 0 to 100 where 0 is no effect and 100 is complete control), Galium [11, 15]: 40
- Galium plant response rating [11, 16]: 55
- Plant response rating, Galium [11, 17]: 90
- Plant response rating, Galium [11, 18]: 80
- Plant response rating (scale of 0 to 100 where 0 is no effect and 100 is complete control), Morningglory [12, 15]: 40
- Morningglory plant response rating [12, 16]: 80
- Plant response rating, Morningglory [12, 17]: 75
- Plant response rating, Morningglory [12, 18]: 55
- Plant response rating (scale of 0 to 100 where 0 is no effect and 100 is complete control), Nutsedge, Yellow [13, 15]: 5
- Nutsedge, Yellow plant response rating [13, 16]: 0
- Plant response rating, Nutsedge, Yellow [13, 17]: 10
- Plant response rating, Nutsedge, Yellow [13, 18]: 5
- Plant response rating (scale of 0 to 100 where 0 is no effect and 100 is complete control), Crabgrass, Large [14, 15]: 5
- Crabgrass, Large plant response rating [14, 16]: 5
- Plant response rating, Crabgrass, Large [14, 17]: 25
- Plant response rating, Crabgrass, Large [14, 18]: 10
